Data taken from ChEMBL document CHEMBL3271950, “2,3-Dihydroxyphenethanolamine as an adrenergic agent” (J Med Chem, 1976).
Each block holds one compound with its values, some of them ahead of it. Active and inactive are the calls of the source. The calls are words filed in the database; no cut-off is given here.

What was measured:
[1] = test system: Rattus norvegicus; test: Decrease in blood pressure in rat at 0.150 mg/kg; type: functional, organism-based; design: dose 0.15 mg/kg
[2] = target: T1, Catechol O-methyltransferase (Homo sapiens) (UniProt P21964); test: Activity of catechol-O-methyltransferase (unknown origin)
T1 sequence (whole entry): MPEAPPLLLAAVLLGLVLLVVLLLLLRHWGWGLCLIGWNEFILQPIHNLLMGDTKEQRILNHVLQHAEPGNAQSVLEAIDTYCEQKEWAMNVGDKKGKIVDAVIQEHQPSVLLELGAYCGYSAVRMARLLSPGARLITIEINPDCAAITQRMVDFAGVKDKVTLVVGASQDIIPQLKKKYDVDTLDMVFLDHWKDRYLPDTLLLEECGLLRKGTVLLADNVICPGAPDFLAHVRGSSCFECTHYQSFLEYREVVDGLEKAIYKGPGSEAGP

[3] = target: T1, Catechol O-methyltransferase (Homo sapiens); test: Inhibition of catechol-O-methyltransferase (unknown origin)-mediated l-norepinephrine methylation; settings: concentration not given here
[4] = Metal chelating activity of the compound assessed as Cu2+ complex formation at 1 x 10' -3 M by spectrometry; type: physicochemical; settings: 1000 µM
[5] = species on record: Rattus norvegicus; test: Agonist activity at adrenergic receptor in rat vas deferens at 13 ug/ml; type: tissue-based
[6] = species on record: Rattus norvegicus; test: Potentiation of l-norepinephrine-induced adrenergic receptor activity in rat vas deferens assessed as contraction; type: tissue-based
[7] = test system: Rattus norvegicus; test: Increase blood pressure in rat at 100 mg/kg; type: functional, organism-based; design: dose 100 mg/kg
[8] = test system: Rattus norvegicus; test: Increase blood pressure in rat at 1 mg/kg; type: functional, organism-based; design: dose 1 mg/kg
[9] = species on record: Rattus norvegicus; test: Agonist activity at adrenergic receptor in rat vas deferens at 0.165 ug/ml; type: tissue-based
[10] = test system: Rattus norvegicus; test: Decrease in blood pressure in rat at 120 mg/kg; type: functional, organism-based; design: dose 120 mg/kg

SMILES: CC(C)NCC(O)c1ccc(O)c(O)c1 (racemic)
- Activity [1]: Active

SMILES: Br.NCC(O)c1cccc(O)c1O (configuration not stated)
- Activity [2]: < 5%
- inhibition [3]: 25%
- Activity [4]: Active
- Activity [5]: Active
- Activity [6]: Active
- Activity [7]: Active

SMILES: Oc1ccccc1O [CATECHOL]
- Activity [4]: Active

- Activity [9]: Active
SMILES: NC[C@@H](O)c1ccc(O)c(O)c1
- Activity [8]: Active

SMILES: CC(C)NCC(O)c1cccc(O)c1O (configuration not stated)
- Activity [10]: Active

- Activity [4]: Active
SMILES: Br.NC[C@H](O)c1ccc(O)c(O)c1
